The values below come from paper PMC8064090 (Biomolecules, 2021).

Read-outs that look alike come from different tables or passages of the source.

In test [1] the target is T1, wild type (WT) South African HIV-1 subtype C protease (HIV-1 PR) (Human immunodeficiency virus type 1 group M subtype C, UniProt O12158). The test can be described thus: Intrinsic tryptophan fluorescence quenching assay, wild type PR. It counts as binding. The protocol:
(§1) Fluorescent spectra were recorded as described previously using a PerkinElmer LS 55 spectrometer with a 1.0 cm quartz cell (PerkinElmer, Waltham, MA, USA) and connected to a thermostat-controlled bath. This assay utilized the intrinsic tryptophan (Trp) fluorescence by causing the excitation of the π–π* transition in the tryptophan residues. Two Trp residues are found at positions 6 and 42 in each monomer of HIV-1 PR. Trp 6 is located close to the active site, and Trp 42 is found close to the flap of the HIV-1 PR. The position of the Trp residues on the enzyme surface makes them good probes in monitoring changes in the HIV-1 PR tertiary structure. The protein was excited at 295 nm, and fluorescence measurements were recorded from 300 to 420 nm at room temperature (25 °C). The excitation and emission slit widths were set at 5 nm, and the fluorescence spectra were acquired at 500 nm/min. The obtained fluorescence data was corrected and smoothened by running control samples of the buffer. For the fluorescence quenching study, […] of HIV-1 PR and varying inhibitor concentration from 10 to 500 nM were used. For every reaction, a new enzyme solution was used. The decrease in intrinsic Trp fluorescence (F0–F) at each concentration of inhibitor was fitted to the equation (F0–F) = ΔFmax/(1 + (Ki/[I]) to determine Ki and ΔFmax values using the Origin(Pro), 2019 (OriginLab Corporation, Northampton, MA, USA). The Stern–Volmer quenching constants (Ksv) were also calculated by fitting the data into the equation F0/F = 1 + Ksv (Q). The Stern–Volmer constant reports the accessibility of fluorophores to a quencher and the solvent accessibility of the fluorophore. Thus, it is an essential tool that can be used to probe the conformational changes around a fluorophore in proteins. […] The inner filter effect was corrected by using the formula Fc = Fantilog[(Aex + Aem)/2], where Fc is the corrected measurement and F is the measured fluorescence intensities, respectively, Aex is solution absorbance at the excitation, and Aem emission wavelengths.

For test [2], the system named is HIV-1 PR MUT-2 (M46I, I54V, L76V, V82A, L33F, L10F). As to the kind of experiment: biochemical. Conditions: MUT-2; Ki of mutant/Ki of WT. The protocol:
(§2) HIV-1 PR activity was measured by adding a purified enzyme (100–300 nM) to 300 µM of the chromogenic substrate Lys-Ala-Arg-Val-Nle-p-nitro-Phe-Glu-Ala-Nle amide (Sigma-Aldrich, St. Louis, MO, USA) dissolved in buffer D (50 mM sodium acetate buffer containing 100 mM NaCl (pH 5.0)) at 37 °C. The change in absorbance upon hydrolysis of the substrate by HIV-1 PR was monitored, and an extinction coefficient of 1800 M-1 cm-1 at a wavelength of 300 nm was used to convert the absorbance change to reaction rates. […] The data obtained were analyzed by plotting the reciprocal of substrate hydrolysis against substrate concentration (Lineweaver–Burk method to determine the Km and Kcat) and inhibitor concentration (Dixon method to determine the Ki) respectively.

The target in test [3] is HIV-1 PR MUT-2 (M46I, I54V, L76V, V82A, L33F, L10F) (Human immunodeficiency virus type 1 group M subtype C, UniProt O12158, I538V/L494F/L517F/L560V/M530I/V566A). The test can be described thus: biochemical. The protocol:
as §2

Test [4] has as its system HIV-1 PR MUT-1 (M46I, I54V, V82A, L10F). The test can be described thus: biochemical. Conditions: MUT-1; Ki of mutant/Ki of WT. The protocol: as §2
Test [5] concerns the target T2, HIV-1 PR MUT-3 (M46I, I54V, L76V, V82A, L90M, F53L) (Human immunodeficiency virus type 1 group M subtype C, UniProt O12158, F537L/I538V/L560V/L574M/M530I/V566A). The test can be described thus: biochemical. The protocol:
as §2

In test [6] the target is T3, HIV-1 PR MUT-1 (M46I, I54V, V82A, L10F) (Human immunodeficiency virus type 1 group M subtype C, UniProt O12158, I538V/L494F/M530I/V566A). As to the kind of experiment: biochemical. The protocol:
as §2

In test [7] the test system is HIV-1 PR MUT-3 (M46I, I54V, L76V, V82A, L90M, F53L). The test can be described thus: biochemical. The following applies: MUT-3; Ki of mutant/Ki of WT. The protocol:
as §2

Test [8] deals with T2, HIV-1 PR MUT-3 (M46I, I54V, L76V, V82A, L90M, F53L). As to the kind of experiment: biochemical. Conditions: for Stern–Volmer quenching constant (Ksv): MUT-3 HIV-1 PR. Also on record: The HIV-1 PR is a 99 amino acid homodimer; made in house; host or cells: Escherichia coli (NEBExpress). It counts as binding, HIV-1 subtype C. The protocol:
as §1, with “used.” for “used. The decrease in intrinsic Trp fluorescence (F0–F) at each concentration of inhibitor was fitted to the equation (F0–F) = ΔFmax/(1 + (Ki/[I]) to determine Ki and ΔFmax values using the Origin(Pro), 2019 (OriginLab Corporation, Northampton, MA, USA). The Stern–Volmer quenching constants (Ksv) were also calculated by fitting the data into the equation F0/F = 1 + Ksv (Q). The Stern–Volmer constant reports the accessibility of fluorophores to a quencher and the solvent accessibility of the fluorophore. Thus, it is an essential tool that can be used to probe the conformational changes around a fluorophore in proteins.”

Test [9] concerns the target T3, HIV-1 PR MUT-1 (M46I, I54V, V82A, L10F). As to the kind of experiment: biochemical. It counts as binding, HIV-1 subtype C. Also on record: The HIV-1 PR is a 99 amino acid homodimer; made in house; host or cells: Escherichia coli (NEBExpress). The following applies: for Stern–Volmer quenching constant (Ksv): MUT-1 HIV-1 PR. As to the method:
as §1, with “used.” for “used. The decrease in intrinsic Trp fluorescence (F0–F) at each concentration of inhibitor was fitted to the equation (F0–F) = ΔFmax/(1 + (Ki/[I]) to determine Ki and ΔFmax values using the Origin(Pro), 2019 (OriginLab Corporation, Northampton, MA, USA). The Stern–Volmer quenching constants (Ksv) were also calculated by fitting the data into the equation F0/F = 1 + Ksv (Q). The Stern–Volmer constant reports the accessibility of fluorophores to a quencher and the solvent accessibility of the fluorophore. Thus, it is an essential tool that can be used to probe the conformational changes around a fluorophore in proteins.”

Test [10] addresses T1, wild type (WT) South African HIV-1 subtype C protease (HIV-1 PR). As to the kind of experiment: Enzyme inhibition assay with chromogenic substrate (Dixon method), wild type PR. In kind it is biochemical. Conditions: for Relative Resistance: WT, Ki of mutant/Ki of WT. As to the method: as §2
In test [11] the target is wild-type subtype B HIV-1 PR. The following applies: cited from earlier work.
The target of test [12] is T4, HIV-1 PR MUT-2 (M46I, I54V, L76V, V82A, L10F, L33F) (Human immunodeficiency virus type 1 group M subtype C, UniProt O12158, I538V/L494F/L517F/L560V/M530I/V566A).
T4 construct: The HIV-1 PR is a 99 amino acid homodimer; made in house; host or cells: Escherichia coli (NEBExpress)
The test can be described thus: Intrinsic tryptophan fluorescence quenching assay, MUT-2 PR. Conditions: MUT-2 HIV-1 PR; for Ki: tryptophan fluorescence, 25 °C. It counts as binding, HIV-1 subtype C. The protocol: as §1, with “used.” for “used. The decrease in intrinsic Trp fluorescence (F0–F) at each concentration of inhibitor was fitted to the equation (F0–F) = ΔFmax/(1 + (Ki/[I]) to determine Ki and ΔFmax values using the Origin(Pro), 2019 (OriginLab Corporation, Northampton, MA, USA). The Stern–Volmer quenching constants (Ksv) were also calculated by fitting the data into the equation F0/F = 1 + Ksv (Q). The Stern–Volmer constant reports the accessibility of fluorophores to a quencher and the solvent accessibility of the fluorophore. Thus, it is an essential tool that can be used to probe the conformational changes around a fluorophore in proteins.”

The target of test [13] is multidrug-resistant forms of HIV-1 subtype B PR harboring numerous major and minor mutations. Conditions: cited from earlier work.
Test [14] has as its target wild type South African HIV-1 subtype C PR. Conditions: previous study ref 71; cited from earlier work.

T3 sequence (O12158 485-583 L494F/M530I/I538V/V566A): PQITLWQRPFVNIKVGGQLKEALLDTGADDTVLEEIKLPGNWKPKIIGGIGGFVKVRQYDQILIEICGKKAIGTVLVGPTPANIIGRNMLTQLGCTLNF
T4 sequence (O12158 485-583 L494F/L517F/M530I/I538V/L560V/V566A): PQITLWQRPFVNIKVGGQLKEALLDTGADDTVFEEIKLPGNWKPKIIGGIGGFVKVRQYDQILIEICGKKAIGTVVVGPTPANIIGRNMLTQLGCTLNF
T1 sequence (O12158 485-583): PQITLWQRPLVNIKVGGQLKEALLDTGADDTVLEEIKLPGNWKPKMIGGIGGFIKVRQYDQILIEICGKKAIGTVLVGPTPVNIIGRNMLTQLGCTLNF
T2 sequence (O12158 485-583 M530I/F537L/I538V/L560V/V566A/L574M): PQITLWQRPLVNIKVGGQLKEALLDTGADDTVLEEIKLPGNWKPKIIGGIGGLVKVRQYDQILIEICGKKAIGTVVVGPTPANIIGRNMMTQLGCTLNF
Sequence of HIV-1 PR MUT-2 (M46I, I54V, L76V, V82A, L33F, L10F) (Human immunodeficiency virus type 1 group M subtype C, UniProt O12158, I538V/L494F/L517F/L560V/M530I/V566A) (O12158 485-583 L494F/L517F/M530I/I538V/L560V/V566A): as the sequence (O12158 485-583 L494F/L517F/M530I/I538V/L560V/V566A) above

For orientation: Ki means a measure of affinity in units of concentration, obtained from inhibition or displacement. For `Cc1cccc(C)c1OCC(=O)N[C@@H](Cc1ccccc1)[C@@H](O)C[C@H](Cc1ccccc1)NC(=O)[C@H](C(C)C)N1CCCNC1=O` [LPV, lopinavir], the Ki was 17.2 nM in test [1]; 52.6 ± 0.65 nM in test [3]; 76.26 ± 0.09 nM in [5]; 46.5 ± 0.14 nM in [6]; 113 nM in [8]; 54.7 nM in [9]. The inhibition constant (Ki) in test [10] is 2.13 ± 0.23 nM; in test [11] (wild-type subtype B HIV-1 PR) it was around 0.02 nM; in [12], 79.5 nM; in test [13], 0.44 to 260 nM; in [14], 2.1 ± 0.2 nM. For the same compound, the “Stern–Volmer quenching constant (Ksv)” value in test [1] was determined as 0.02 nM⁻¹; in [8], 0.003 nM⁻¹; in test [9], 0.004 nM⁻¹; in test [12] it was 0.004 nM⁻¹. In addition, the “Relative Resistance” value stood at 24.71 in test [2], 21.83 in test [4], 35.80 in test [7] and 1.00 in test [10].
As for `CC(C)CN(C[C@@H](O)[C@H](Cc1ccccc1)NC(=O)O[C@H]1CO[C@H]2OCC[C@H]21)S(=O)(=O)c1ccc(N)cc1` [DRV, darunavir], the Ki stood at 8.12 nM in [1]; 7.8 ± 0.71 nM in test [3]; 11.5 ± 1.09 nM in test [5]; 5.53 ± 0.09 nM in [6]; 44.7 nM in test [8]; 26.3 nM in test [9]. For the same compound, the Ki in test [10] was 1.58 ± 0.11 nM; in test [11] (wild type subtype B HIV-1 PR) it was around 0.005 nM; in [12] it was 32.9 nM; in test [14] it was 1.4 ± 0.2 nM. For the same compound, the “Stern–Volmer quenching constant (Ksv)” value is 0.030 nM⁻¹ in test [1] (WT HIV-1 PR), 0.005 nM⁻¹ in test [8], 0.01 nM⁻¹ in [9] and 0.009 nM⁻¹ in [12]. Besides, in test [10], the “Relative Resistance” value was found to be 1.00.
